Results from patent publication US6562759B1, “Substituted phenyl uracils” (Bayer Aktiengesellschaft, priority 1999, dated 2003).

How the values were obtained:
weeds [1] = test: Post-emergence Test; format: in vivo; conditions: test plants of height 5-15 cm sprayed, rated after three weeks vs untreated control
Description: Post-emergence Test Solvent: 5 parts by weight of acetone Emulsifier: 1 part by weight of alkylaryl polyglycol ether To produce a suitable preparation of active compound, 1 part by weight of active compound is mixed with the stated amount of solvent, the stated amount of emulsifier is added and the concentrate is diluted with water to the desired concentration. Test plants which have a height of 5-15 cm are sprayed with the preparation of active compound such that the particular amounts of active compound desired are applied per unit area. The concentration of the spray liquor is chosen so that the particular amounts of active compound desired are applied in 1000 l of water/ha. After three weeks, the degree of damage to the plants is rated in % damage in comparison to the development of the untreated control. The figures denote: 0%=no effect (like untreated control) 100%=total destruction

weeds [2] = test: Pre-emergence Test; format: in vivo; conditions: soil sprayed about 24 hours after sowing, rated after three weeks vs untreated control
Description: Pre-emergence Test Solvent: 5 parts by weight of acetone Emulsifier 1 part by weight of alkylaryl polyglycol ether To produce a suitable preparation of active compound, 1 part by weight of active compound is mixed with the stated amount of solvent, the stated amount of emulsifier is added and the concentrate is diluted with water to the desired concentration. Seeds of the test plants are sown in normal soil. After about 24 hours, the soil is sprayed with the preparation of active compound such that the particular amount of active compound desired is applied per unit area. The concentration of the spray liquor is chosen so that the particular amount of active compound desired is applied in 1000 litres of water per hectare. After three weeks, the degree of damage to the plants is rated in % damage in comparison to the development of the untreated control. The figures denote: 0%=no effect (like untreated control) 100%=total destruction

Cn1c(C(F)(F)F)cc(=O)n(-c2cc(C3OCCO3)c(C#N)cc2F)c1=O [Preparation Example 1, 1-[4-cyano-2-fluoro-5-(1,3-dioxolan-2-yl)-phenyl]-3,6-dihydro-2,6-dioxo-3-methyl-4-trifluoromethyl-1(2H)-pyrimidine]
activity against weeds (degree of damage to the plants) (weeds [1]): very strong activity against weeds | activity against weeds (degree of damage to the plants) (weeds [2]): very strong activity against weeds
